ChEMBL document CHEMBL1201862, “PubChem BioAssay data set” (2004)
One block for each molecule: values may come before it. Active and inactive are the calls of the source.

What was measured:
[1] = target: Nuclear receptor subfamily 5 group A member 2 (Homo sapiens, UniProt O00482); assay type: functional, cell-based;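 note: HEK293T cells transfected with LRH-1 and a StAR promoter luciferase reporter; potency for inhibitors that lower LRH-1 driven reporter light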
[2] = target: Steroidogenic factor 1 (Homo sapiens, UniProt Q13285); assay: Counterscreen for inverse agonists of the liver receptor homolog-1 (LRH-1; NR5A2): Luminescence-based cell-based high throughput dose response assay to identify inverse agonists of the Steroidogenic Factor 1 Nuclear Receptor (SF1; NR5A1).; assay type: functional
Steroidogenic factor 1, sequence (Q13285 whole entry): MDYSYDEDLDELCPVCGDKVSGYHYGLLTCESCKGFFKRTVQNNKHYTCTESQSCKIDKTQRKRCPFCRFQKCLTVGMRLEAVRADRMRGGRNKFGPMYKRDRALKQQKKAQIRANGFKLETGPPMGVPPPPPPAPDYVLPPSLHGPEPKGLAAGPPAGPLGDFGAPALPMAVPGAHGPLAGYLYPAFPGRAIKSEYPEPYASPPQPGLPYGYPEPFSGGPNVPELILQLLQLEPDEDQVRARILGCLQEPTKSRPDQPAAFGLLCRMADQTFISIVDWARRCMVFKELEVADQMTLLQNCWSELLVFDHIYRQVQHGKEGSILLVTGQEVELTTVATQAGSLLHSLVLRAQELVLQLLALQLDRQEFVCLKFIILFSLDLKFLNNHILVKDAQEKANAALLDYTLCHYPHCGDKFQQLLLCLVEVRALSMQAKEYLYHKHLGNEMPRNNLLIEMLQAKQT

[3] = StAR promoter reporter inhibition counter-screen, dose response, counter-screen for LRH-1 inverse agonist project, cell-based, luminescence, luciferase reporter (AID 651969); assay type: functional
[4] = AlphaScreen signal interference compounds, dose response, artefact control for ARNT-TACC3 interaction inhibitor project, biochemical, luminescence, cherry-pick (AID 651705); assay type: functional;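 note: AlphaScreen bead proximity signal that flags compounds interfering with the detection technology; potency reflects signal decrease which marks the compound as an assay artifact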
[5] = target: Low molecular weight phosphotyrosine protein phosphatase (Homo sapiens, UniProt P24666); assay type: functional; details: read-out: IC50_Mean;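 note: Dose-response confirmation assay measuring inhibition of LMPTP enzyme activity by fluorescence intensity read-out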
Low molecular weight phosphotyrosine protein phosphatase, sequence (P24666 whole entry): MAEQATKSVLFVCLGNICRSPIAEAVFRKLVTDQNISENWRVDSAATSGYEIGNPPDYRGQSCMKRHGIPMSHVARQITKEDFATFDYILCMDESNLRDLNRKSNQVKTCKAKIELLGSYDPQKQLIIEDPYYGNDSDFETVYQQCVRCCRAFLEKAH

[6] = target: T1, Dual specificity protein phosphatase 6 (Rattus norvegicus, UniProt Q64346); assay: MKP-3 phosphatase inhibitors, primary screen, biochemical, rat enzyme, in vitro (AID 425)
T1 sequence (Q64346 whole entry): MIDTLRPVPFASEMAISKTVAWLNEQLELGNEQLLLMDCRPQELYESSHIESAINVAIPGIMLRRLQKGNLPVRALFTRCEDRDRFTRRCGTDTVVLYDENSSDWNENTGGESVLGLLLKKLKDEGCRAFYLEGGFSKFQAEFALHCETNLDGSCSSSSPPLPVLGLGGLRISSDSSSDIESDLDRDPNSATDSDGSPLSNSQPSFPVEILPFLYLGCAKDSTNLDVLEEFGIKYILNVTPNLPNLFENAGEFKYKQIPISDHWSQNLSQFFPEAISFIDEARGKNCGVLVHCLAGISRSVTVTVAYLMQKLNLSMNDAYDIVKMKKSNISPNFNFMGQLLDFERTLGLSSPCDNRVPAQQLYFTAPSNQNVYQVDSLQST

[7] = target: T2, Interleukin-8 (Homo sapiens, UniProt P10145); assay: Dose Response confirmation of uHTS small molecule hits for cystic fibrosis induced NFkb Inhibitors in a TNFa-induced IL8 counterscreen.; assay type: functional; details: read-out: IC50_Mean
T2 sequence (P10145 whole entry): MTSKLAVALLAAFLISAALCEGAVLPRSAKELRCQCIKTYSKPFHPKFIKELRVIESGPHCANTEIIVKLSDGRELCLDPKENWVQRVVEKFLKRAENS

[8] = target: T2, Interleukin-8; assay: Dose Response confirmation of uHTS small molecule hits for cystic fibrosis induced NFkb Inhibitors in a PAF-induced IL8 counterscreen.; assay type: functional; details: read-out: IC50_Mean
[9] = inhibitors of intracellular T. cruzi replication, confirmation, NIH3T3 host cells, beta-gal luminescence (AID 2044); assay type: functional, cell-based;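 note: intracellular parasites grown in NIH/3T3 mouse fibroblasts as host cells; luminescent beta-galactosidase reporter signal from transgenic T. cruzi replicating inside host cells; inhibitors lower the luminescence signal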
[10] = cytotoxicity toward NIH3T3 fibroblasts, dose response, counter-screen, cell-based, ATP luminescence, mouse fibroblasts (AID 2010); assay type: functional;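 note: cells exposed to compound for about 90 hours before reading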
[11] = target: T3, Heat shock factor protein 1 (Mus musculus, UniProt P38532); assay: HSF1 potentiators in luciferase reporter cells, confirmation, cell-based, NIH3T3, luminescence, dose retest (AID 435004); assay type: functional;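 note: stress induced by proteasome inhibitor MG132 added 30 min after compound; luciferase reporter driven by HSF1 response element in NIH3T3 cells; actives raise luminescence as potentiators of the MG132 stress response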
T3 sequence (P38532 whole entry): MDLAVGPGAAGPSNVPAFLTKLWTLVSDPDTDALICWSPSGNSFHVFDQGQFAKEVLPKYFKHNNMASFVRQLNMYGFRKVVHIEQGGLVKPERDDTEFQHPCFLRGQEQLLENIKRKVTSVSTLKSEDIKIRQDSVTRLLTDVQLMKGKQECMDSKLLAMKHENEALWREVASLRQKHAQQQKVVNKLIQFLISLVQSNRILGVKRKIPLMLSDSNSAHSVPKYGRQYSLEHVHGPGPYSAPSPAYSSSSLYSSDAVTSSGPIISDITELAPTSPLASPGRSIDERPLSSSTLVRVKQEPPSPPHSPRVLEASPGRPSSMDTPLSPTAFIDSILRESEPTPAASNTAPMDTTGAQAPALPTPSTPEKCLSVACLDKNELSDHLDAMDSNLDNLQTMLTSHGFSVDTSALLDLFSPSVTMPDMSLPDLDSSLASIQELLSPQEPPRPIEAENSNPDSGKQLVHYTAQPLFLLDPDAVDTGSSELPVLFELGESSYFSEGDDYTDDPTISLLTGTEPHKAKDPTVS

[12] = target: T4, X-box-binding protein 1 (Homo sapiens, UniProt P17861); assay type: functional, Cricetulus griseus;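 note: confirmatory dose-response counter-screen serving a CHOP assay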
T4 sequence (P17861 whole entry): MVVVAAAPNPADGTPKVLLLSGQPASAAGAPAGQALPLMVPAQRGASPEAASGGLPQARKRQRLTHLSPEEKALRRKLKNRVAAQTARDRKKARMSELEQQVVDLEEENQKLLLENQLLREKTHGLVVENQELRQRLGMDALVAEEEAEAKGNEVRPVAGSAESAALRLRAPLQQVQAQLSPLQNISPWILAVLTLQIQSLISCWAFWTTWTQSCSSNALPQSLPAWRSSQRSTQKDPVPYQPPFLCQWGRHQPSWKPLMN

[13] = target: Melanocortin receptor 4 (Homo sapiens, UniProt P32245); assay type: functional, cell-based;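 note: Cell-based assay with luminescence read-out, confirmatory dose-response testing for agonist activity of biased ligands at MC4R; human U2OS cells with tagged receptor and beta-arrestin; potency of agonists that increase receptor coupling to beta-arrestin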
Melanocortin receptor 4, sequence (P32245 whole entry): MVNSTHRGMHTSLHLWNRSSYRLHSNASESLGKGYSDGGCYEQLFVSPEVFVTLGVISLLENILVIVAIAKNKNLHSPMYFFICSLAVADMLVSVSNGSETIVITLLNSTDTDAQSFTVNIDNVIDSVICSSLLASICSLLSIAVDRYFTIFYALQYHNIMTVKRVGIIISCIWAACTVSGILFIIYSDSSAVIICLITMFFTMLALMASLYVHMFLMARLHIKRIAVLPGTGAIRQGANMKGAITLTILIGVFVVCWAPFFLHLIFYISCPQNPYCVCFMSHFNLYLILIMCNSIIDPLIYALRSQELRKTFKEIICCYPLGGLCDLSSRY

[14] = target: T5, Apoptotic protease-activating factor 1 (Homo sapiens, UniProt O14727); assay: SAR analysis of small molecule Activators of Apaf-1 in a Fluorescent assay.; assay type: functional; details: read-out: EC50_Mean;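 note: caspase-3 cleavage of fluorogenic Rh110 DEVD substrate downstream of apoptosome activation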
T5 sequence (O14727 whole entry): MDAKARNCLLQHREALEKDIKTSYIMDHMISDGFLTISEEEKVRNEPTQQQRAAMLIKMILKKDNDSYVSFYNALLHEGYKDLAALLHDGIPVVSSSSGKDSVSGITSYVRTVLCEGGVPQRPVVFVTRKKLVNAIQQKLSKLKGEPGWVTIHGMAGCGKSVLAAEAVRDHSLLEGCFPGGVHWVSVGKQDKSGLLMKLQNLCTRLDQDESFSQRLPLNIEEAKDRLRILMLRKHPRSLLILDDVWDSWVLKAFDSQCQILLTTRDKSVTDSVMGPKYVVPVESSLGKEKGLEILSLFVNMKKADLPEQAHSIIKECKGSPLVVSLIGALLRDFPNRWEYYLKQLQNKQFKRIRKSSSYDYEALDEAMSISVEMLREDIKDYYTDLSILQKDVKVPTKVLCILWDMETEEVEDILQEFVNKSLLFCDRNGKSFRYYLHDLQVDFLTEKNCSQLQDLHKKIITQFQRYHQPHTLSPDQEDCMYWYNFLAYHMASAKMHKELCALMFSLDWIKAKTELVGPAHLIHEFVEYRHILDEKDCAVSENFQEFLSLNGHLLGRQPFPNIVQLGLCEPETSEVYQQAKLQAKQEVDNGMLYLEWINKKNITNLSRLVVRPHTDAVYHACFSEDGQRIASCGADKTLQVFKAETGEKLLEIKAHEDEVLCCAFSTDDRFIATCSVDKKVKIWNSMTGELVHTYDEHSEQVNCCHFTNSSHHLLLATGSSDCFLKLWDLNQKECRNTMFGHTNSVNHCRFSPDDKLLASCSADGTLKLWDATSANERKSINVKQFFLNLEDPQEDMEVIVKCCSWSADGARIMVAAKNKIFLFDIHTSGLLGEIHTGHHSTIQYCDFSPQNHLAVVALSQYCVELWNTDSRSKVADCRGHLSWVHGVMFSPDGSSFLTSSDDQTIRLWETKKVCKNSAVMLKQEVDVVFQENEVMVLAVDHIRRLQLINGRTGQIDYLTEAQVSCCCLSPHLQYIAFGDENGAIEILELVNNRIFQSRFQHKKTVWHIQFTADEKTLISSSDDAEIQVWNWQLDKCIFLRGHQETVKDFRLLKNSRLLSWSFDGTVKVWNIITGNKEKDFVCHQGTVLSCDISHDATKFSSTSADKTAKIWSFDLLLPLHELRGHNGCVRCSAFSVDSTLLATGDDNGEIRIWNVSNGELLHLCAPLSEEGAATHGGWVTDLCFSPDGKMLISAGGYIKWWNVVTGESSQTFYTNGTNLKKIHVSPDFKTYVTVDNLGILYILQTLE

[15] = miR-122 activators in hepatoma reporter cells, dose response, cell-based, Huh7 psiCHECK-miR122, Renilla luciferase, cherry-picked (AID 651956); assay type: functional;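 note: huh7 hepatoma cells stably carrying a psiCHECK-2 miR-122 sensor plasmid; renilla luciferase signal reporting endogenous miR-122 activity after 48 h compound exposure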
[16] = target: Paired box protein Pax-8 (Homo sapiens, UniProt Q06710); assay: inhibitors of PAX8-driven TPO luciferase reporter, dose response, RMG-I cells, cherry-pick (AID 687027); assay type: functional, cell-based;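 note: luciferase reporter driven by Pax8 target thyroperoxidase promoter measured by SteadyGlo luminescence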
Paired box protein Pax-8, sequence (Q06710 whole entry): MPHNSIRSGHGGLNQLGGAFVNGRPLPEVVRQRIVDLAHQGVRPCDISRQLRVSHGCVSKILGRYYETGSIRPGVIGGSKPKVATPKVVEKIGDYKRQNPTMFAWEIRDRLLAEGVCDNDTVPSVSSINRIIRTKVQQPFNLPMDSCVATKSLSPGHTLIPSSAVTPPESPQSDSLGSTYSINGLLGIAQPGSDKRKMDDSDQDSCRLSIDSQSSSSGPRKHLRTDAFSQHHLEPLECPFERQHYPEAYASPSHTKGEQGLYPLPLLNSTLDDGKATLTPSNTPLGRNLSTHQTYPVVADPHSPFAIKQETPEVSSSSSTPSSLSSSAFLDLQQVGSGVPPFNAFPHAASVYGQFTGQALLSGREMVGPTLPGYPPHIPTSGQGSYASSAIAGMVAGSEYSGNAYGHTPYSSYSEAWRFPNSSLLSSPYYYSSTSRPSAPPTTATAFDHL

Nuclear receptor subfamily 5 group A member 2, sequence (O00482 whole entry): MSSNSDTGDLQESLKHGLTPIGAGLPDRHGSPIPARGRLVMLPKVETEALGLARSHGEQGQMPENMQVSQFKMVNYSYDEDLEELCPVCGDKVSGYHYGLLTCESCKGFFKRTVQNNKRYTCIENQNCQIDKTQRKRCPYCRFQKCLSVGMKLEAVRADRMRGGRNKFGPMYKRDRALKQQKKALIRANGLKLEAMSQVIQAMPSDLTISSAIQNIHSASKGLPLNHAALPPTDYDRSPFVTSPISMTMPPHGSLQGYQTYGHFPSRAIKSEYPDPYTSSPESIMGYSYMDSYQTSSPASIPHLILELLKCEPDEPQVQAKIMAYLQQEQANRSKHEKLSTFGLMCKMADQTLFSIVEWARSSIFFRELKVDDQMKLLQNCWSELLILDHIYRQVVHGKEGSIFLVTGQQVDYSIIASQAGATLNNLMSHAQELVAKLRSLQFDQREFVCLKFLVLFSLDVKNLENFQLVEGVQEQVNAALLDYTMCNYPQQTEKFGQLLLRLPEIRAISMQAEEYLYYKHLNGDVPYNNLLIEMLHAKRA

Structure (SMILES): COc1ccc(CC(NC(C)=O)C(=O)NC2CCN(c3nnnn3-c3ccccc3)CC2)cc1 (stereo not given)
IC50 [1]: 16.5 µM (inactive)
IC50 [2]: 11.3 µM (inactive)
IC50 [3]: 35.9 µM (inactive)

Structure (SMILES): O=C(CSc1nc(=O)n2cc(Cl)ccc2n1)Nc1ccc2c(c1)OCCO2
IC50 [1]: 35.9 µM (inactive)
IC50 [2]: 35.9 µM (inactive)
IC50 [3]: 35.9 µM (inactive)

Structure (SMILES): O=C(NCCCn1ccnc1)Nc1ccc(Cl)c(Cl)c1
AC50 [4]: 99 µM (active)

IC50 [5]: 5.48 µM (active)
Structure (SMILES): CC(Nc1nc(-c2ccccc2F)nc2ccccc12)c1ccccc1 (stereo not given)

IC50 [6]: > 10 µM (not active)
IC50 [5]: 50.6 µM (inactive)
Structure (SMILES): O=C(O)c1cnc2ccc(S(=O)(=O)N3CCN(c4ccc(F)cc4)CC3)cc2c1O

IC50 [7]: 0.969 µM (active)
IC50 [8]: 1.37 µM (active)
Structure (SMILES): COc1ccc(-c2csc(NC3OC(=O)c4c3ccc(OC)c4OC)n2)cc1OC (stereo not given)

Structure (SMILES): Cc1ccc(C2=NN(C(=O)c3cccs3)C(c3ccccc3O)C2)cc1 (stereo not given)
EC50 [9]: 2.49 µM (active)
EC50 [10]: > 60 µM (not active)
EC50 [11]: > 260 µM (inactive)
Absolute IC50 (XBP1) [12]: 10 µM
EC50 [13]: > 89.2 µM (inactive)

Structure (SMILES): COc1cc(-c2nnc(NC(=O)CS(=O)(=O)c3ccc(F)cc3)o2)cc(OC)c1OC
AC50 [4]: 102 µM (active)

EC50 [13]: > 89.2 µM (inactive)
Structure (SMILES): NC(c1ccccc1)c1csc(NC(=O)Nc2ccccc2Oc2ccccc2)n1 (stereo not given)

EC50 [14]: > 100 µM (inactive)
Structure (SMILES): Cc1ccc(N2C(=O)CC3(CC(c4ccc(Br)cc4)=NO3)C2=O)cc1 (stereo not given)

EC50 [14]: > 100 µM (inactive)
Structure (SMILES): O=C(O)[C@@H]1COC(c2ccccc2C(F)(F)F)=N1

Structure (SMILES): COc1ccc(C#Cc2ccc3c(c2)O[C@H](CN(C)C(=O)CN2CCOCC2)[C@H](C)CN([C@@H](C)CO)S3(=O)=O)cc1
AC50 [15]: 29.9 µM (active)

Structure (SMILES): C=C1C(=O)O[C@@H]2[C@H]1CC[C@H](C)[C@]1(O)CCC(=O)[C@@]21C [CORONOPILIN]
IC50 [7]: 40.5 µM (inactive)
IC50 [8]: 7.49 µM (active)
AC50 [16]: 5.43 µM (active)
